Assay results published in ChEMBL document CHEMBL4396868, “Discovery of Potent, Selective, and Brain-Penetrant 1 H-Pyrazol-5-yl-1 H-pyrrolo[2,3- b]pyridines as Anaplastic Lymphoma Kinase (ALK) Inhibitors” (J Med Chem, 2019).

Assays:
[1] = molecular target: MAP kinase-activated protein kinase 2 (Homo sapiens) (UniProt P49137); assay: Inhibition of MAPKAPK2 (unknown origin) at 100 nM by [gamma-33P]ATP-based radiometric or Alphascreen assay relative to control
[2] = molecular target: Mitogen-activated protein kinase 3 (Homo sapiens) (UniProt P27361); assay: Inhibition of N-terminal FLAG-tagged ERK1 (unknown origin) expressed in baculovirus expression system at 100 nM using myelin basic protein as substrate preincubated for 5 mins followed by [gamma-33P]ATP addition and measured after 60 mins by topcount scintillation counting method relative to control
Mitogen-activated protein kinase 3 (Homo sapiens), sequence (P27361 whole entry): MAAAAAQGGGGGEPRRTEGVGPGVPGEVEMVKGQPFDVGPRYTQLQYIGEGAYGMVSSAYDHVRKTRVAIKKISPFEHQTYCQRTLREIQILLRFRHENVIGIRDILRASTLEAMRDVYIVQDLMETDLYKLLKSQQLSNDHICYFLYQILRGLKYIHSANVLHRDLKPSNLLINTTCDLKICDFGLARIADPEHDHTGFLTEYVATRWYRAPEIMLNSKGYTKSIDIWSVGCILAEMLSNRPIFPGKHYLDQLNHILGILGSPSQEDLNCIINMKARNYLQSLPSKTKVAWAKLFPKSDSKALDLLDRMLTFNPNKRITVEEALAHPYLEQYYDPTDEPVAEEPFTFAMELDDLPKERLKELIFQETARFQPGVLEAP

Focal adhesion kinase 1 = Focal adhesion kinase 1 (Homo sapiens, UniProt Q05397); assay: Inhibition of full-length N-terminal FLAG-tagged FAK (unknown origin) expressed in baculovirus expression system at 100 nM preincubated for 5 mins followed by ATP addition and measured after 60 mins by alphascreen assay relative to control
Focal adhesion kinase 1, sequence (Q05397 2-1052 limits assumed): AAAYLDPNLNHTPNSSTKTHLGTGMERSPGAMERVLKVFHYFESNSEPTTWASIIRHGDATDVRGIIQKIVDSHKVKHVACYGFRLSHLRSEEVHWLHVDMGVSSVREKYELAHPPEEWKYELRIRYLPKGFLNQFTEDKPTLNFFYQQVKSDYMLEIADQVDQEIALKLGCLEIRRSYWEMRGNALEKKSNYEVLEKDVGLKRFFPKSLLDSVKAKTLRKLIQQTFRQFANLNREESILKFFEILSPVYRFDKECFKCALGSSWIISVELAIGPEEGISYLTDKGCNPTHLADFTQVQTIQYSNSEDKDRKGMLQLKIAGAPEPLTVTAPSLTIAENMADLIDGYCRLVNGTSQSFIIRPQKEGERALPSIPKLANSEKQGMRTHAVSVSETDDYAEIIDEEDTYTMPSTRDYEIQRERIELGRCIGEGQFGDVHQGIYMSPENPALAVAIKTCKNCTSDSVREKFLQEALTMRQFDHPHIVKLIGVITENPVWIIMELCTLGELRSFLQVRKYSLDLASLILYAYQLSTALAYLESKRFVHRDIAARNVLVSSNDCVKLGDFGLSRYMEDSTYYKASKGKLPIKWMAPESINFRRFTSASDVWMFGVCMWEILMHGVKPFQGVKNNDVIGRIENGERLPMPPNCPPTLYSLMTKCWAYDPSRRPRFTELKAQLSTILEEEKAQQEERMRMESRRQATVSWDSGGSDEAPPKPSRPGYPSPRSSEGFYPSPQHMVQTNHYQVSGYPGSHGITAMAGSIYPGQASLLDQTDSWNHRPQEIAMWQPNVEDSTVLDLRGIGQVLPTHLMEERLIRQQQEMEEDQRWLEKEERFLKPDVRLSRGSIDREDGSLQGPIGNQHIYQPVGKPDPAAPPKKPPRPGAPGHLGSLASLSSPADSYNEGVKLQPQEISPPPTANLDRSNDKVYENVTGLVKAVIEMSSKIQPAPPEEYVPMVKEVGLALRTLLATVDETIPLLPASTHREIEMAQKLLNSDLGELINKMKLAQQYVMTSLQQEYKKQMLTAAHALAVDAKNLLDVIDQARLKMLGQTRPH

Homo sapiens = organism: Homo sapiens; assay: Selectivity ratio of IC50 for human FAK kinase domain (411 to 686 residues) expressed in baculovirus expression system to IC50 for human ALK kinase domain (1058 to 1620 residues) expressed in baculovirus expression system
[3] = molecular target: High affinity nerve growth factor receptor (Homo sapiens, UniProt P04629); assay: Inhibition of N-terminal GST-tagged human TrkA kinase domain (436 to 790 residues) expressed in baculovirus expression system using biotin-poly-GT as substrate pre-incubated for 5 mins followed by ATP addition and measured after 60 mins by alpha screen assay
[4] = Drug level in Jcl-ICR mouse plasma at 100 mg/kg, ip measured at 1 hr by LC/MS/MS analysis; format: ADME, organism-based
[5] = Brain to plasma partition coefficient, Kp of the compound in Jcl-ICR mouse at 100 mg/kg, ip measured at 0.5 hrs by LC/MS/MS analysis; format: ADME, organism-based
[6] = molecular target: Rho-associated protein kinase 1 (Homo sapiens) (UniProt Q13464); assay: Inhibition of ROCK1 (unknown origin) at 100 nM by [gamma-33P]ATP-based radiometric or Alphascreen assay relative to control
Rho-associated protein kinase 1 (Homo sapiens), sequence (Q13464 2-1354 limits assumed): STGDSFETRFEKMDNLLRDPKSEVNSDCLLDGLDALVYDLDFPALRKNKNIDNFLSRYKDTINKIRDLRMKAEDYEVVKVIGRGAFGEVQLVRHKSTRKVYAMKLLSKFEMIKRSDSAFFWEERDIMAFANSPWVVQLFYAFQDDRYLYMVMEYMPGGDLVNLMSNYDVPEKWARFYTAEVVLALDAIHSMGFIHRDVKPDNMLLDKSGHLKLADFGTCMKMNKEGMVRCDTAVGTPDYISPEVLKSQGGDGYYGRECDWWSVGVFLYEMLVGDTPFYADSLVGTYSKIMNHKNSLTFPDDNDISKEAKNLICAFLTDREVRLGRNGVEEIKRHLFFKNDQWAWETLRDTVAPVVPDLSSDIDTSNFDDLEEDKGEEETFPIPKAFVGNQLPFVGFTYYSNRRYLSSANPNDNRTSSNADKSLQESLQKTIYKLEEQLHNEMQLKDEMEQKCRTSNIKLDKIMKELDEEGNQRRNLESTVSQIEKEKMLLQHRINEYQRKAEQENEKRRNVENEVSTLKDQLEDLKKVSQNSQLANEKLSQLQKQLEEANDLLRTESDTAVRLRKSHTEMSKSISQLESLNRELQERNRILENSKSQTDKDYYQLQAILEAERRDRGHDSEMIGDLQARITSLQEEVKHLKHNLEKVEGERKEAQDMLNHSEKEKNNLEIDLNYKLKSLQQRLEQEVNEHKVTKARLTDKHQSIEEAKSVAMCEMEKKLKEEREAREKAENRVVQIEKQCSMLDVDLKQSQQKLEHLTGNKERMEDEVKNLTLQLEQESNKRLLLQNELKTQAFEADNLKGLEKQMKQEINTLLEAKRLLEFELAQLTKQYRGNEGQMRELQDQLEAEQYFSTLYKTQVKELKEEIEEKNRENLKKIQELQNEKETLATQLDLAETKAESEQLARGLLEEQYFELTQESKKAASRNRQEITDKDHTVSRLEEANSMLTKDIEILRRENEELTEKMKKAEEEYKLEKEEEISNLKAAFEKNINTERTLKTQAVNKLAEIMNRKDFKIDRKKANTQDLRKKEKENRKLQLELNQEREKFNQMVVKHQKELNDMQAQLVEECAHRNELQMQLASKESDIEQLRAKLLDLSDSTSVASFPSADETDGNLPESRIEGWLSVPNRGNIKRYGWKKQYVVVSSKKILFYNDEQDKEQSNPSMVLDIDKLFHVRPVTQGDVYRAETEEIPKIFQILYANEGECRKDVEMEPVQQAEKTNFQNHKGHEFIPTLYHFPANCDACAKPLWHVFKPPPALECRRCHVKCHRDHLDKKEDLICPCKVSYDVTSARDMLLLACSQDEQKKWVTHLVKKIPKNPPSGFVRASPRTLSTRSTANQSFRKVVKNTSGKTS

[7] = molecular target: Dual specificity mitogen-activated protein kinase kinase 1 (Homo sapiens) (UniProt Q02750); assay: Inhibition of N-terminal GST-fused MEK1 (unknown origin) expressed in FreeStyle 293 cells at 100 nM using GST-ERK1(K71A) as substrate preincubated for 5 mins followed by [gamma-33P]ATP addition and measured after 20 mins by topcount scintillation counting method relative to control
Dual specificity mitogen-activated protein kinase kinase 1 (Homo sapiens), sequence (Q02750 whole entry, the tested form may be a part): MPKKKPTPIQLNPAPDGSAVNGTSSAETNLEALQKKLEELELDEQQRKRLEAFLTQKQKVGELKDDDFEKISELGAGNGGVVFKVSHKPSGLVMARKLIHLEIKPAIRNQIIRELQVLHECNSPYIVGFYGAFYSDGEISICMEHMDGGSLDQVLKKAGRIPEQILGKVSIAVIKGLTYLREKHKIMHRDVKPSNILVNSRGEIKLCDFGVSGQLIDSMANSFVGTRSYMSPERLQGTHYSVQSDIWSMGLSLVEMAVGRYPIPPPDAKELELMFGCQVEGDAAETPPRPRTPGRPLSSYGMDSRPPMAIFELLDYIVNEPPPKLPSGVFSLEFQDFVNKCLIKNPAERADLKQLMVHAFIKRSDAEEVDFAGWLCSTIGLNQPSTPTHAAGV

[8] = molecular target: cAMP-dependent protein kinase catalytic subunit alpha (Homo sapiens) (UniProt P17612); assay: Inhibition of PKA (unknown origin) expressed in Escherichia coli at 100 nM using PKA substrate peptide preincubated for 5 mins followed by [gamma-33P]ATP addition and measured after 10 mins by topcount scintillation counting method relative to control
[9] = Brain to plasma partition coefficient, Kp of the compound in Jcl-ICR mouse at 100 mg/kg, ip measured at 2 hrs by LC/MS/MS analysis; format: ADME, organism-based
[10] = molecular target: Interleukin-1 receptor-associated kinase 4 (Homo sapiens) (UniProt Q9NWZ3); assay: Inhibition of IRAK4 (unknown origin) at 100 nM by [gamma-33P]ATP-based radiometric or Alphascreen assay relative to control
Interleukin-1 receptor-associated kinase 4 (Homo sapiens), sequence (Q9NWZ3 whole entry): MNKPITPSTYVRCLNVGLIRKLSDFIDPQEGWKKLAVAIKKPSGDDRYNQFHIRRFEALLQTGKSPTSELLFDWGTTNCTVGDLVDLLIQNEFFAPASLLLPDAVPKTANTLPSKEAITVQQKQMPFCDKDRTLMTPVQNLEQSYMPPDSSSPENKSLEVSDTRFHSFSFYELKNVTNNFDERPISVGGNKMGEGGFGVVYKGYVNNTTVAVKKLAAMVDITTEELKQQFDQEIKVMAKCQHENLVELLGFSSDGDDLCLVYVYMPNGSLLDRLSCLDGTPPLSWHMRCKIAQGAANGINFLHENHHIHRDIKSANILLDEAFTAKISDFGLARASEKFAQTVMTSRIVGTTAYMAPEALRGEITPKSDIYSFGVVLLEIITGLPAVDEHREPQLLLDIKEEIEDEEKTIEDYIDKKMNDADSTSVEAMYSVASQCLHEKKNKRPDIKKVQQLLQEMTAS

[11] = Fraction unbound in ICR mouse plasma at 1 umol/L measured for 20 hrs by equilibrium dialysis based LC-MS/MS analysis; format: ADME, cell-free; details: 1 µM
[12] = molecular target: Hepatocyte growth factor receptor (Homo sapiens) (UniProt P08581); assay: Inhibition of recombinant human N-terminal GST-fused/His6-tagged c-MET (956 to 1390 residues) expressed in baculovirus infected Spodoptera frugiperda cells at 100 nM preincubated for 5 mins followed by ATP addition and measured after 10 mins by alphascreen assay relative to control
[13] = molecular target: Phosphatidylinositol 4,5-bisphosphate 3-kinase catalytic subunit alpha isoform (Homo sapiens) (UniProt P42336); assay: Inhibition of PI3Kalpha (unknown origin) at 100 nM by [gamma-33P]ATP-based radiometric or Alphascreen assay relative to control
Phosphatidylinositol 4,5-bisphosphate 3-kinase catalytic subunit alpha isoform (Homo sapiens), sequence (P42336 whole entry, canonical isoform): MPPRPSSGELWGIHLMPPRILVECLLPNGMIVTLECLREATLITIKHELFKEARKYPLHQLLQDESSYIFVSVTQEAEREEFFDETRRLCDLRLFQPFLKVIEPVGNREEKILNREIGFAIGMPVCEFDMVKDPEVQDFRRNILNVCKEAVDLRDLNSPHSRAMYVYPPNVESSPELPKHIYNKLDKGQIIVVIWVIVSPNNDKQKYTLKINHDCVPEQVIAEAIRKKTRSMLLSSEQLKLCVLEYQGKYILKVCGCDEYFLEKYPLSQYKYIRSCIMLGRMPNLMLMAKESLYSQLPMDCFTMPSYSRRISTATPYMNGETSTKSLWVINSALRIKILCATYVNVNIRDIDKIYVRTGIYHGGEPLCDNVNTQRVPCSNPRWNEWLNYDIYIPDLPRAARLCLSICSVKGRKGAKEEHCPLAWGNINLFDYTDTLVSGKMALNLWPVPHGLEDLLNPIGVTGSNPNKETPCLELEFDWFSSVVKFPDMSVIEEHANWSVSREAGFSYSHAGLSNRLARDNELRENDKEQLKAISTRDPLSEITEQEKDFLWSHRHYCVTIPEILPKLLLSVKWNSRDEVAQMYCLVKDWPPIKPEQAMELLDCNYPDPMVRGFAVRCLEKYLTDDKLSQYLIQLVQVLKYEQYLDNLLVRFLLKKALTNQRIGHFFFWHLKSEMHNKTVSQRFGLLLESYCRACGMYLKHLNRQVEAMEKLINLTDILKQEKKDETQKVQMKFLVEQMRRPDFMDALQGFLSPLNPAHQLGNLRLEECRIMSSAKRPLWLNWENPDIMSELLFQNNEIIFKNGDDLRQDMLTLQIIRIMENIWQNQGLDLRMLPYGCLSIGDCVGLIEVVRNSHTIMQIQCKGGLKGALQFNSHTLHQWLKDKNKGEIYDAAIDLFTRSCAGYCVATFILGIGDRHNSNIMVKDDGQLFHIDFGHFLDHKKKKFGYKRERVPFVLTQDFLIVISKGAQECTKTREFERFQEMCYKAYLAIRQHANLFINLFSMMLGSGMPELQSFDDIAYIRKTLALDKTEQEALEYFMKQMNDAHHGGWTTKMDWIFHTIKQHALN

[14] = Drug level in Jcl-ICR mouse brain at 100 mg/kg, ip measured at 1 hr by LC/MS/MS analysis; format: ADME, organism-based; details: read-out: Drug uptake
[15] = molecular target: Ephrin type-A receptor 5 (Homo sapiens) (UniProt P54756); assay: Inhibition of EPHA5 (unknown origin) at 100 nM by [gamma-33P]ATP-based radiometric or Alphascreen assay relative to control
[16] = Drug level in Jcl-ICR mouse brain at 100 mg/kg, ip measured at 0.5 hrs by LC/MS/MS analysis; format: ADME, organism-based; details: read-out: Drug uptake
[17] = Drug level in Jcl-ICR mouse plasma at 100 mg/kg, ip measured at 2 hr by LC/MS/MS analysis; format: ADME, organism-based

SMILES: Cc1cc(-n2cc(C(=O)N3CCO[C@@H](C)C3)c3ccc(O[C@@H](C)c4ccc(F)cn4)nc32)n[nH]1
- inhibition [1]: 3%
- inhibition [2]: 3%
- inhibition (Focal adhesion kinase 1): 83%
- Ratio IC50 (Homo sapiens): 10
- IC50 [3]: 2600 nM
- concentration at 1 h [4]: 26200 ng/mL
- Kp at 0.5 h [5]: 1.26
- inhibition [6]: -5%
- inhibition [7]: -1%
- inhibition [8]: 12%
- Kp at 2 h [9]: 0.515
- inhibition [10]: -7%
- Fu [11]: 0.08%
- inhibition [12]: -5%
- inhibition [13]: -2%
- concentration at 1 h [14]: 33400 ng/mL
- inhibition [15]: -2%
- concentration at 0.5 h [16]: 33000 ng/mL
- concentration at 2 h [17]: 11600 ng/mL
